Assays:
[1] = Sera and homogenates stability; type: in vitro ADME, human and rat; settings: human and rat sera, 37° C., 3 h
Method: Sera and Homogenates Stability.
The in vitro stability of complex 1, complex 2, complex 9 and complex 11 was evaluated by monitoring the RCP at different time points using the following procedures. In a propylene test tube 50 μl of purified [^99mTc(N)(PNP3OH)]-compound were added to: a) 450 μl of human serum, b) 450 μl of rat serum, c) 450 μl of homogenate of rat liver and d) 450 μl of homogenate of rat kidneys. The resulting mixture was incubated at 37° C. for 4 h.
The sample was loaded onto a cartridge, preconditioned with MeOH (1 ml) and equilibrated with water (1 ml), and rinsed with MeOH 5% (3 ml). The activity was eluted with a mixture of EtOH/saline 60% (1 ml). Each fraction was collected and the activity measured using a counter (Cobra II, Packard) to determinate the elution profile. 80% of the loaded activity was collected in the elution fraction. An aliquot of this solution (100 μl) was analyzed by HPLC to assess the degradation of the ^99mTc(N)-complexes (FIG. 11).

[2] = Stability in the reaction solution as function of pH (FIG. 5); type: physicochemical
Method: The variation of (%)RCY of complex 1 and complex 2 over the time (30 min vs 18 h), at different conditions, is shown in FIG. 5. […] Alternatively, free PNP3OH was directly used.

[3] = Biodistribution in healthy rats; type: in vivo, Sprague-Dawley rats; settings: for Biodistribution: Blood / Biodistribution: Brain / Biodistribution: Heart / Biodistribution: Intestine / Biodistribution: Kidneys / Biodistribution: Liver / Biodistribution: Lungs / Biodistribution: Muscle / Biodistribution: Spleen / Biodistribution: Stomach / Biodistribution: Urine: healthy rats
Method: Before injection, ^99mTc complexes were purified using a reversed-phase C18 Sep-Pack cartridge to remove the excess of unlabeled ligands. After purification, the activity recovered was further diluted with PBS to obtain a final solution that is <0.5% in EtOH content. The RCP and the stability of the purified complexes were evaluated prior to in vivo administration and for the succeeding 18 h.
Biodistribution in healthy rats. Biodistribution in healthy rats was performed on complex 1, complex 2 and complex 9 in order to evaluate their pharmacokinetic profile and elimination pathways as well as their resistance to in vivo metabolism. Female Sprague-Dawley rats weighing 180-200 g were anesthetized with an intramuscular injection of a mixture of Zoletil (40 mg/kg) and xylazine (2 mg/kg). A jugular vein was surgically exposed and 100 μl (300-370 kBq) of the solution containing the selected [^99mTc(N)(PNP3OH)]-compound was injected. The rats (n=3) were scarified by cervical dislocation at different times after injection. The blood was withdrawn from the heart with a syringe immediately after death and quantified. Organs were excised, rinsed in saline, weighed, and the activity was counted in a Nal well counter.

SMILES: CC(=O)NC1C[S][99Tc](#[N])[O]C1=O.COCCN(CCP(CO)CO)CCP(CO)CO [Complex 1, [^99mTc(N)(PNP3OH)(CysNAc)]]
- Sera stability [1]: high sera stability
- Stability in the reaction solution ([2]; pH 7.4): stable within 18 h
- Stability in the reaction solution ([2]; pH 9): a progressive degradation was observed
- Pharmacokinetic profile: blood clearance ([3]; healthy animals, within the first 60 min p.i.): rapid blood clearance
- Biodistribution: Blood ([3]; 2 min): 1.68 ± 0.02 % IA/g
- Biodistribution: Brain ([3]; 2 min): 0.10 ± 0.01 % IA/g
- Biodistribution: Heart ([3]; 2 min): 0.54 ± 0.09 % IA/g
- Biodistribution: Intestine ([3]; 2 min): 0.70 ± 0.02 % IA/g
- Biodistribution: Kidneys ([3]; 2 min): 4.73 ± 0.37 % IA/g
- Biodistribution: Liver ([3]; 2 min): 1.73 ± 0.02 % IA/g
- Biodistribution: Lungs ([3]; 2 min): 1.11 ± 0.22 % IA/g
- Biodistribution: Muscle ([3]; 2 min): 0.32 ± 0.02 % IA/g
- Biodistribution: Spleen ([3]; 2 min): 0.40 ± 0.07 % IA/g
- Biodistribution: Stomach ([3]; 2 min): 0.39 ± 0.05 % IA/g
- Biodistribution: Blood ([3]; 10 min): 0.96 ± 0.03 % IA/g
- Biodistribution: Brain ([3]; 10 min): 0.05 ± 0.01 % IA/g
- Biodistribution: Heart ([3]; 10 min): 0.27 ± 0.01 % IA/g
- Biodistribution: Intestine ([3]; 10 min): 2.85 ± 0.67 % IA/g
- Biodistribution: Kidneys ([3]; 10 min): 4.07 ± 0.67 % IA/g
- Biodistribution: Liver ([3]; 10 min): 2.27 ± 0.01 % IA/g
- Biodistribution: Lungs ([3]; 10 min): 0.68 ± 0.03 % IA/g
- Biodistribution: Muscle ([3]; 10 min): 0.14 ± 0.01 % IA/g
- Biodistribution: Spleen ([3]; 10 min): 0.26 ± 0.00 % IA/g
- Biodistribution: Stomach ([3]; 10 min): 0.41 ± 0.09 % IA/g
- Biodistribution: Urine ([3]; 10 min): 31.28 ± 4.07 % IA/g
- Biodistribution: Blood ([3]; 30 min): 0.43 ± 0.09 % IA/g
- Biodistribution: Brain ([3]; 30 min): 0.04 ± 0.01 % IA/g
- Biodistribution: Heart ([3]; 30 min): 0.17 ± 0.07 % IA/g
- Biodistribution: Intestine ([3]; 30 min): 5.46 ± 3.28 % IA/g
- Biodistribution: Kidneys ([3]; 30 min): 2.47 ± 0.04 % IA/g
- Biodistribution: Liver ([3]; 30 min): 1.28 ± 0.03 % IA/g
- Biodistribution: Lungs ([3]; 30 min): 0.38 ± 0.15 % IA/g
- Biodistribution: Muscle ([3]; 30 min): 0.11 ± 0.00 % IA/g
- Biodistribution: Spleen ([3]; 30 min): 0.10 ± 0.01 % IA/g
- Biodistribution: Stomach ([3]; 30 min): 0.35 ± 0.02 % IA/g
- Biodistribution: Blood ([3]; 60 min): 0.11 ± 0.00 % IA/g
- Biodistribution: Brain ([3]; 60 min): 0.01 ± 0.00 % IA/g
- Biodistribution: Heart ([3]; 60 min): 0.06 ± 0.01 % IA/g
- Biodistribution: Intestine ([3]; 60 min): 10.07 ± 0.26 % IA/g
- Biodistribution: Kidneys ([3]; 60 min): 1.15 ± 0.12 % IA/g
- Biodistribution: Liver ([3]; 60 min): 0.99 ± 0.13 % IA/g
- Biodistribution: Lungs ([3]; 60 min): 0.14 ± 0.01 % IA/g
- Biodistribution: Muscle ([3]; 60 min): 0.08 ± 0.03 % IA/g
- Biodistribution: Spleen ([3]; 60 min): 0.10 ± 0.01 % IA/g
- Biodistribution: Stomach ([3]; 60 min): 0.24 ± 0.12 % IA/g
- Biodistribution: Urine ([3]; 60 min): 58.89 ± 2.27 % IA/g
- Biodistribution: Blood ([3]; 120 min): 0.06 ± 0.01 % IA/g
- Biodistribution: Brain ([3]; 120 min): 0.01 ± 0.00 % IA/g
- Biodistribution: Heart ([3]; 120 min): 0.02 ± 0.00 % IA/g
- Biodistribution: Intestine ([3]; 120 min): 0.57 ± 0.05 % IA/g
- Biodistribution: Kidneys ([3]; 120 min): 0.77 ± 0.26 % IA/g
- Biodistribution: Liver ([3]; 120 min): 0.54 ± 0.05 % IA/g
- Biodistribution: Lungs ([3]; 120 min): 0.10 ± 0.01 % IA/g
- Biodistribution: Muscle ([3]; 120 min): 0.02 ± 0.00 % IA/g
- Biodistribution: Spleen ([3]; 120 min): 0.09 ± 0.01 % IA/g
- Biodistribution: Stomach ([3]; 120 min): 0.25 ± 0.06 % IA/g
- Biodistribution: Urine ([3]; 120 min): 55.74 ± 14.87 % IA/g

Source: patent US11160886B2, “Method for labeling of sensitive and thermosensitive targeting biomolecules with technetium based compounds” (BRACCO IMAGING SPA, priority 2016, dated 2021)
